In this assay the target is Neuropilin-1 (Homo sapiens) (UniProt O14786). The experiment in a line: blockers of CendR peptide binding to NRP-1 – biochemical, FP and AlphaScreen panel, dose response (AID 651650). To be noted: NRP-1 b1b2 / RPARPAR peptide binding, FP or AlphaScreen.
Where [1] appears, read: AlphaScreen, run 1, individual panel run IC50.
Where [2] appears, read: FP, run 1, individual panel run IC50.
The mark [3] stands for this setting: FP, run 2, individual panel run IC50.

Active and inactive are the calls of the source.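 The calls were made as follows: active = mean IC50 below 20 µM in each of the two panels, so potent in both; inactive = the rest.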

Sequence of Neuropilin-1 (Homo sapiens) (O14786 whole entry, looked up): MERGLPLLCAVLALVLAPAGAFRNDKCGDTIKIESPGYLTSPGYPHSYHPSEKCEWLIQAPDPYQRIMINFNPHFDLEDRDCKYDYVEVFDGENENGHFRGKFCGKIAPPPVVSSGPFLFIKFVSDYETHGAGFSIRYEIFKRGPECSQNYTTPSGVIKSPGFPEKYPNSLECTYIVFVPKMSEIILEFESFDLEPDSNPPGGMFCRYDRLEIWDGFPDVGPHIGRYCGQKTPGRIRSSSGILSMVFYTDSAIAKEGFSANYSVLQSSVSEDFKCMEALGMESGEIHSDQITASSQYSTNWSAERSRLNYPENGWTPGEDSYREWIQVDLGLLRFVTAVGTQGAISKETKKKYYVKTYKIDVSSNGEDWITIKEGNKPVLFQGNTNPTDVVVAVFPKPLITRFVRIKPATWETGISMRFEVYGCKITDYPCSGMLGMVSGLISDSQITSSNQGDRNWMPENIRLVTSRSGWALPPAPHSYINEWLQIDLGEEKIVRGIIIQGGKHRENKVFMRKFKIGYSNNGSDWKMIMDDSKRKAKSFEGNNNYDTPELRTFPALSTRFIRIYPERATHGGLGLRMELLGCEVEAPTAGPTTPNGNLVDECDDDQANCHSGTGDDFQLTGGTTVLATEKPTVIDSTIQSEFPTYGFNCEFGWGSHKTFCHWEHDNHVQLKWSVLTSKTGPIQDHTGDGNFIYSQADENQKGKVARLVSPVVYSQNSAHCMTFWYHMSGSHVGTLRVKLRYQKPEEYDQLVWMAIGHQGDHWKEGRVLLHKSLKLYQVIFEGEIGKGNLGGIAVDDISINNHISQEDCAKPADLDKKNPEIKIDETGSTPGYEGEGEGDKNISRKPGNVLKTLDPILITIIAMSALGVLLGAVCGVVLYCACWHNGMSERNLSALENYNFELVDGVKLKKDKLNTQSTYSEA

On to `CCNS(=O)(=O)c1ccc(CCC(=O)O)cc1`, for which the IC50 was > 100 µM (inactive) (AlphaScreen, mean of runs); greater than 100 µM under setting [1]; > 95 µM (inactive) (FP, mean of runs); greater than 95 µM under setting [2]; greater than 95 µM under setting [3].
With `COc1cc(OC)nc(NC(=O)COC(=O)c2cccc(Cl)c2)n1`, the IC50 result (AlphaScreen, mean of runs) was “inactive”. In addition, the half-inhibitory concentration (IC50) was 27.1 µM under setting [1]; > 95 µM (inactive) (FP, mean of runs); greater than 95 µM under setting [2]; greater than 95 µM under setting [3].
In the case of `COc1ccc(-c2noc(CN(C(=O)c3ccc4c(c3)OCO4)C(C)C)n2)cc1`, the IC50 runs as follows: (AlphaScreen, mean of runs) > 100 µM (inactive); under setting [1], greater than 100 µM; (FP, mean of runs) > 95 µM (inactive); under setting [2], greater than 95 µM; under setting [3], greater than 95 µM.
On to `COc1ccc(-c2csc(NCCc3nc4cc(C(=O)NCCCO)ccc4n3Cc3ccc(C)cc3)n2)cc1`, for which, for the setting “AlphaScreen, mean of runs”, the IC50 entry was “inactive”. The half-inhibitory concentration (IC50) by setting is: under setting [1], 27.6 µM; (FP, mean of runs) > 95 µM (inactive); under setting [2], greater than 95 µM; under setting [3], greater than 95 µM.
In the case of `CC(=O)C(=Cc1ccc(Cl)cc1)C(=O)c1ccccc1`, the IC50 is > 100 µM (inactive) (AlphaScreen, mean of runs); greater than 100 µM under setting [1]; > 95 µM (inactive) (FP, mean of runs); greater than 95 µM under setting [2]; greater than 95 µM under setting [3].
On to `Cc1cc(N/C(=N/S(=O)(=O)c2cc(F)ccc2F)c2ccccc2)n(-c2ccccc2)n1`, for which the IC50 (AlphaScreen, mean of runs) is > 100 µM (inactive); the half-maximal inhibitory concentration (IC50) under setting [1] is greater than 100 µM; the IC50 (FP, mean of runs) is > 95 µM (inactive); the IC50 under setting [2] was greater than 95 µM; the IC50 under setting [3] is greater than 95 µM.
In the case of `Cc1ccc(C(=O)Nc2nnc([C@H]3C[C@H](O)[C@@H](CO)O3)s2)cc1`, the IC50 (AlphaScreen, mean of runs) is > 100 µM (inactive); the IC50 under setting [1] is greater than 100 µM; the IC50 (FP, mean of runs) was > 95 µM (inactive); the half-maximal inhibitory concentration (IC50) under setting [2] is greater than 95 µM; the half-maximal inhibitory concentration (IC50) under setting [3] was greater than 95 µM.
In the case of `CC(C)Oc1ccc(F)cc1-c1cc(C(=O)NCc2ccc(F)cc2)[nH]n1`, the IC50 (AlphaScreen, mean of runs) was > 100 µM (inactive); the IC50 under setting [1] is greater than 100 µM; the IC50 (FP, mean of runs) is > 95 µM (inactive); the IC50 under setting [2] is greater than 95 µM; the concentration for half-maximal inhibition (IC50) under setting [3] is greater than 95 µM.
Turning to `c1ccc2c(CNc3ccc(CNc4ncn[nH]4)cc3)cccc2c1`, the IC50 is > 100 µM (inactive) (AlphaScreen, mean of runs); greater than 100 µM under setting [1]; > 95 µM (inactive) (FP, mean of runs); greater than 95 µM under setting [2]; greater than 95 µM under setting [3].
For the compound `CC(=O)Nc1ccc(NC(=O)C2CC(=O)N=C(N)S2)cc1` (stereo not given), the IC50 was > 100 µM (inactive) (AlphaScreen, mean of runs); greater than 100 µM under setting [1]; > 95 µM (inactive) (FP, mean of runs); greater than 95 µM under setting [2]; greater than 95 µM under setting [3].
For `CC1(C(=O)NCc2cccc3ccccc23)CCN1Cc1cccc2c1OCO2` (stereo not given), the IC50 (AlphaScreen, mean of runs) was > 100 µM (inactive); the IC50 under setting [1] is greater than 100 µM; the IC50 (FP, mean of runs) was > 95 µM (inactive); the concentration for half-maximal inhibition (IC50) under setting [2] is greater than 95 µM; the IC50 under setting [3] is greater than 95 µM.
With `Cc1nn(-c2ccccc2)c(C)c1C(=O)OCC(=O)Nc1ccccc1`, the IC50 runs as follows: (AlphaScreen, mean of runs) > 100 µM (inactive); under setting [1], greater than 100 µM; (FP, mean of runs) > 95 µM (inactive); under setting [2], greater than 95 µM; under setting [3], greater than 95 µM.
As for `Cc1nc2c(OCCC3CCCCC3)cccn2c1N(C)C(=O)CCC1CCCC1`, the IC50 by setting is: (AlphaScreen, mean of runs) > 100 µM (inactive); under setting [1], greater than 100 µM; (FP, mean of runs) > 95 µM (inactive); under setting [2], greater than 95 µM; under setting [3], greater than 95 µM.
Take `CCOC(=O)C(NC(=O)CC(C)C)(Nc1sc(C)c(CC)c1C#N)C(F)(F)F` (stereo not given): the IC50 reads like this: (AlphaScreen, mean of runs) > 100 µM (inactive); under setting [1], greater than 100 µM; (FP, mean of runs) > 95 µM (inactive); under setting [2], greater than 95 µM; under setting [3], greater than 95 µM.
On to `CCO[C@@H]1OC(C(=O)NCc2ccccc2)=C[C@H](c2ccc(Br)cc2)[C@H]1CCCO`, for which, under “AlphaScreen, mean of runs”, the IC50 result is “inactive”. Besides, the half-inhibitory concentration (IC50) is, setting by setting: under setting [1], 22.1 µM; (FP, mean of runs) > 95 µM (inactive); under setting [2], greater than 95 µM; under setting [3], greater than 95 µM.
In the case of `O=C(COc1ccc(S(=O)(=O)N2CCCC2)cc1)Nc1ccc2c(c1)OCCO2`, the IC50 is > 100 µM (inactive) (AlphaScreen, mean of runs); greater than 100 µM under setting [1]; > 95 µM (inactive) (FP, mean of runs); greater than 95 µM under setting [2]; greater than 95 µM under setting [3].
Turning to `Cc1ccc(Cn2nnnc2CN2CCC(n3nnc4ccccc43)CC2)cc1`, the IC50 (AlphaScreen, mean of runs) was > 100 µM (inactive); the IC50 under setting [1] is greater than 100 µM; the IC50 (FP, mean of runs) is > 95 µM (inactive); the half-inhibitory concentration (IC50) under setting [2] is greater than 95 µM; the IC50 under setting [3] was greater than 95 µM.
`Cc1ccc(-n2c(-c3ccco3)nc3c(cnn3-c3ccc(C)cc3)c2=O)cc1`: the IC50 (AlphaScreen, mean of runs) is > 100 µM (inactive); the IC50 under setting [1] was greater than 100 µM; the half-maximal inhibitory concentration (IC50) under setting [2] was determined as 39.7 µM; the IC50 under setting [3] is 36.3 µM. For the same compound, the IC50 result (FP, mean of runs) was “inactive”.
With `COc1cc(CN2C[C@@H](CO)O[C@@H](n3cnc4c(N5CCN(c6ccccc6)CC5)ncnc43)C2)cc(OC)c1OC`, the IC50 entry (AlphaScreen, mean of runs) was “inactive”. Moreover, the half-inhibitory concentration (IC50) was 96.3 µM under setting [1]; > 95 µM (inactive) (FP, mean of runs); greater than 95 µM under setting [2]; greater than 95 µM under setting [3].
On to `Cc1ccccc1Nc1cc(=O)oc2ccccc12`, for which the IC50 was > 100 µM (inactive) (AlphaScreen, mean of runs); greater than 100 µM under setting [1]; > 95 µM (inactive) (FP, mean of runs); greater than 95 µM under setting [2]; greater than 95 µM under setting [3].
As to `CN(C)/C=C/c1c([N+](=O)[O-])c2ccc(O)cc2n1-c1ccccc1`, the IC50 is > 100 µM (inactive) (AlphaScreen, mean of runs); greater than 100 µM under setting [1]; > 95 µM (inactive) (FP, mean of runs); greater than 95 µM under setting [2]; greater than 95 µM under setting [3].
Turning to `CSc1cccc(CN2CCN(Cc3ccccc3)C(CCO)C2)c1` (stereo not given), the IC50 by setting is: (AlphaScreen, mean of runs) > 100 µM (inactive); under setting [1], greater than 100 µM; (FP, mean of runs) > 95 µM (inactive); under setting [2], greater than 95 µM; under setting [3], greater than 95 µM.
Regarding `COC(=O)c1ccccc1NC(=O)CSc1nc(C)cc(C)n1`, the IC50 runs as follows: (AlphaScreen, mean of runs) > 100 µM (inactive); under setting [1], greater than 100 µM; (FP, mean of runs) > 95 µM (inactive); under setting [2], greater than 95 µM; under setting [3], greater than 95 µM.
On to `CCOC(=O)C1CCN(S(=O)(=O)c2ccc3c(c2)CCN3C(=O)C2CCC2)CC1`, for which the IC50 by setting is: (AlphaScreen, mean of runs) > 100 µM (inactive); under setting [1], greater than 100 µM; (FP, mean of runs) > 95 µM (inactive); under setting [2], greater than 95 µM; under setting [3], greater than 95 µM.
In the case of `O=C1N[C@H](Cc2c[nH]c3ccccc23)COC(=O)[C@H](Cc2ccc(F)cc2)C/C=C\C[C@H]1CC(=O)N(CCO)Cc1ccccc1`, the concentration for half-maximal inhibition (IC50) reads like this: (AlphaScreen, mean of runs) 15 µM; under setting [1], 15 µM; (FP, mean of runs) > 95 µM (inactive); under setting [2], greater than 95 µM; under setting [3], greater than 95 µM.

For the origin of these results see PubChem BioAssay AID651650 (Sanford-Burnham Center for Chemical Genomics, 2012).
